Laboratory results published in patent publication US20070225344A1, “Sulfonamide derivatives to treat infection with hepatitis C virus” (priority 2006, published 2007).

Target: T1, HCV RdRp NS5B d21BK (BK strain, 1b subtype) (Hepatitis C virus genotype 1b, UniProt P26663)
T1 construct: NS5B from the BK strain (1b subtype) is expressed in E. coli as a protein in which the 21 C-terminal amino acids are replaced; made in house; host or cells: E. coli
Assay: HCV polymerase (NS5B) RNA-dependent RNA polymerase inhibition, 33P-GTP filter assay
Assay type: biochemical
Details: in vitro; NS5B BK strain (1b subtype), 24 nM enzyme, 2 h at room temperature; read-out: HCV Polymerase Median IC50
Source text: The ability of the compounds of the present invention to inhibit hepatitis C polymerase was established by the following experimental procedure:
NS5B from the BK strain (1b subtype) is expressed in E. coli as a protein in which the 21 C-terminal amino acids are replaced with a short linker and a hexahistidine tag (GSHHHHHH). The purified protein is mixed with radioactive nucleotides and allowed to replicate a heteropolymeric RNA substrate, primed by an endogenous short hairpin, resulting in an approximately 760 nt product. The radioactive product is captured on a filter and quantitated after removal of the unincorporated nucleotides.
(1) Compounds 10 μl at 10 μg/ml in 15% DMSO
Add 20 μl enzyme mix into each well of the assay plate. Incubate compound and enzyme at room temperature for 15 minutes.
(3) Template Mix—Prepare Ahead.
Spin down a tube of RNA (5 μg/tube stored in 75% ethanol and 0.3 M sodium acetate) in a microcentrifuge for 20 min. at 4° C. One tube is enough for 1 to 1½ plates. Remove as much ethanol from the tube as possible by inverting the tube. Be gentle, pellet RNA may not adhere to the tube. Vacuum dry the RNA. Resuspend the RNA by adding 1 ml of DEPC water, close the cap of the tube tightly. To dissolve RNA, incubate RNA solution on ice for ˜60 min. and gently vortex. Spin briefly to ensure all RNA solution is down to the bottom of the tube before opening cap. Gently transfer RNA solution into a 5 ml or larger tube. Add another 3 ml of DEPC water (total 4 ml of volume).
Add the following volumes of reagents.
Add 20 μl template mix per reaction (i.e. 20 ng of POF per reaction or ˜3 nM)
(4) Incubate reaction at room temperature (22-25° C.) for 2 hours.
(5) Stop reaction by adding 50 μl of 170 mM EDTA.
Final concentration of EDTA is 85 mM.
(6) Prewet filters of Millipore Multiscreen filter plate by adding 200 μl of 0.5 M sodium phosphate buffer, pH 7.0 into each well. Let stand at room temperature for 2-3 min.
(7) Place the Multiscreen filter plate onto a Millipore Manifold and turn on vacuum to allow buffer to flow through. Turn off vacuum. Transfer 80 μl of the reaction product into each well of the filter plate. Let stand for 2-3 min. Turn on vacuum to filter reaction product.
(8) Turn off vacuum. Add 200 μl of 0.5 M sodium phosphate buffer, pH 7.0 into each well to wash filter. Turn on vacuum.
Repeat step (8) three more times.
(9) Remove polypropylene bottom. Spot dry filter at the bottom with paper towel. Air dry filter plate on a bench for 1 hr. Add 40 μl Super Mix scintillant. Seal top of the plate with a tape. Place plate into a Packard carrier or MicroBeta carrier.
(10) Count plate using a Packard Topcount or MicroBeta counter. Program 10 for ^33P in Top count or ^33P program in micro-beta.
Percent inhibition is calculated after background subtraction as a percent reduction of activity relative to the positive control (average value of the plate excluding the negative controls).

T1 sequence (P26663 2420-2997, looked up, natural form): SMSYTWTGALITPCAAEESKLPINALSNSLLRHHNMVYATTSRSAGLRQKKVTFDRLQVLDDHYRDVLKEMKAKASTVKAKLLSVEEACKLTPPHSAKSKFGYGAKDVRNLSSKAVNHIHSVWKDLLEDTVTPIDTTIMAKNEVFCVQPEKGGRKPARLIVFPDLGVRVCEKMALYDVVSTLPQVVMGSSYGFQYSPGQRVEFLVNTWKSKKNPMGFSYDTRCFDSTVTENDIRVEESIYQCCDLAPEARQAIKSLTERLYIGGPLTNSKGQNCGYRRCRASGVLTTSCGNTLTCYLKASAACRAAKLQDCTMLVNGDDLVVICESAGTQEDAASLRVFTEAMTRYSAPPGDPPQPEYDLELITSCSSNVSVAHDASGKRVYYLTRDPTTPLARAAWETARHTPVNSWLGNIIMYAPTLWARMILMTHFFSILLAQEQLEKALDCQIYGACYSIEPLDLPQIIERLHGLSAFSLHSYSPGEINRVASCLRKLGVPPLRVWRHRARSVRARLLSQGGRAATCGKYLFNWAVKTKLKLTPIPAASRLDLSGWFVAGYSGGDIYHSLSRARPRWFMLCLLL

Point of comparison: `O=C(O)[C@@H]1CCCN1S(=O)(=O)c1cc(Cl)c(Cl)c(Cl)c1O` [Example 4, 1-[(3,4,5-trichloro-2-hydroxyphenyl)sulfonyl]-L-proline], IC50 0.08 µM. Against it:
- O=S(=O)(c1cc(Cl)cc(Cl)c1O)N1CCC[C@H]1c1nn[nH]n1 [Example 1, 2,4-dichloro-6-{[(2S)-2-(2H-tetrazol-5-yl)pyrrolidin-1-yl]sulfonyl}phenol] — 7-fold higher, 0.56 µM
- N#C[C@@H]1CCCN1S(=O)(=O)c1cc(Cl)cc(Cl)c1O [Example 2, (2S)-1-[(3,5-dichloro-2-hydroxyphenyl)sulfonyl]pyrrolidine-2-carbonitrile] — 13-fold higher, 1.04 µM
- O=C(O)[C@@H]1C[C@@H](O)CN1S(=O)(=O)c1cc(Cl)c(Cl)c(Cl)c1O [Example 3, (4R)-4-hydroxy-1-[(3,4,5-trichloro-2-hydroxyphenyl)sulfonyl]-L-proline] — within 1.5-fold, 0.07 µM
- O=C(O)[C@@H]1CCCN1S(=O)(=O)c1cc(Cl)cc(Br)c1O [Example 5, 1-[(3-bromo-5-chloro-2-hydroxyphenyl)sulfonyl]-L-proline] — 3.2-fold higher, 0.26 µM
- O=C(O)[C@@H]1C[C@@H](O)CN1S(=O)(=O)c1cc(Br)cc(Br)c1O [Example 6, (4R)-1-[(3,5-dibromo-2-hydroxyphenyl)sulfonyl]-4-hydroxy-L-proline] — 5.8-fold higher, 0.46 µM
- O=C(O)[C@@H]1C[C@@H](O)CN1S(=O)(=O)c1cc(Cl)cc(Br)c1O [Example 7, (4R)-1-[(3-bromo-5-chloro-2-hydroxyphenyl)sulfonyl]-4-hydroxy-L-proline] — 5.9-fold higher, 0.47 µM
- O=C(O)[C@@H]1CCCN1S(=O)(=O)c1cc(Br)cc(Cl)c1O [Example 8, 1-[(5-bromo-3-chloro-2-hydroxyphenyl)sulfonyl]-L-proline] — 5-fold higher, 0.4 µM
- O=C(O)[C@@H]1CCCN1S(=O)(=O)c1cc(Br)cc(Br)c1O [Example 9, 1-[(3,5-dibromo-2-hydroxyphenyl)sulfonyl]-L-proline] — 7-fold higher, 0.56 µM
- O=C(O)[C@@H]1C[C@@H](O)CN1S(=O)(=O)c1cc(Cl)cc(Cl)c1O [Example 10, (4R)-1-[(3,5-dichloro-2-hydroxyphenyl)sulfonyl]-4-hydroxy-L-proline] — 8.4-fold higher, 0.67 µM
- CO[C@@H]1C[C@@H](C(=O)O)N(S(=O)(=O)c2cc(Cl)cc(Cl)c2O)C1 [Example 12, (4R)-1-[(3,5-dichloro-2-hydroxyphenyl)sulfonyl]-4-methoxy-L-proline] — 11-fold higher, 0.91 µM
- O=C(O)[C@H]1CCCN1S(=O)(=O)c1cc(Cl)c(Cl)c(Cl)c1O [Example 13, 1-[(3,4,5-trichloro-2-hydroxyphenyl)sulfonyl]-D-proline] — 15-fold higher, 1.17 µM
- O=C(O)[C@@H]1CCCN1S(=O)(=O)c1cc(F)cc(Cl)c1O [Example 14, 1-[(3-chloro-5-fluoro-2-hydroxyphenyl)sulfonyl]-L-proline] — 26-fold higher, 2.05 µM
- O=C(O)[C@H]1C[C@H](O)CN1S(=O)(=O)c1cc(Cl)c(Cl)c(Cl)c1O [Example 15, (4S)-4-hydroxy-1-[(3,4,5-trichloro-2-hydroxyphenyl)sulfonyl]-D-proline] — 15-fold higher, 1.22 µM
- CC(=O)[C@@H]1CCCN1S(=O)(=O)c1cc(Cl)cc(Cl)c1O [Example 16, 1-{(2S)-1-[(3,5-dichloro-2-hydroxyphenyl)sulfonyl]pyrrolidin-2-yl}ethanone] — 33-fold higher, 2.62 µM
- Cc1cc(N)c(S(=O)(=O)N2CCC[C@@H]2C(=O)O)cc1Cl [Example 17, 1-[(2-amino-5-chloro-4-methylphenyl)sulfonyl]-D-proline] — 59-fold higher, 4.7 µM
- O=C(O)[C@@H]1C[C@@H](O)CN1S(=O)(=O)c1cc(F)cc(Cl)c1O [Example 18, (4R)-1-[(3-chloro-5-fluoro-2-hydroxyphenyl)sulfonyl]-4-hydroxy-L-proline] — 41-fold higher, 3.28 µM
- Cc1cc(N)c(S(=O)(=O)N2C[C@@H](O)C[C@@H]2C(=O)O)cc1Cl [Example 19, (4S)-1-[(2-amino-5-chloro-4-methylphenyl)sulfonyl]-4-hydroxy-D-proline] — 51-fold higher, 4.05 µM
- Cc1cc(N)c(S(=O)(=O)N2CCC[C@H]2C(=O)O)cc1Cl [Example 20, 1-[(2-amino-5-chloro-4-methylphenyl)sulfonyl]-L-proline] — 74-fold higher, 5.95 µM
- O=S(=O)(c1cc(Cl)cc(Cl)c1O)N1CCC[C@H]1CO [Example 21, 2,4-dichloro-6-{[(2S)-2-(hydroxymethyl)pyrrolidin-1-yl]sulfonyl}phenol] — 76-fold higher, 6.1 µM
- O=C(O)[C@H]1CCCN1S(=O)(=O)c1cc(Br)cc(Cl)c1O [Example 22, 1-[(5-bromo-3-chloro-2-hydroxyphenyl)sulfonyl]-D-proline] — 60-fold higher, 4.81 µM
- O=S(=O)(c1cc(Cl)cc(Cl)c1O)N1CCCC1 [Example 23, 2,4-dichloro-6-(pyrrolidin-1-ylsulfonyl)phenol] — 61-fold higher, 4.85 µM
- Cc1cc(S(=O)(=O)N2C[C@@H](O)C[C@@H]2C(=O)O)c(N)cc1Cl [Example 24, (4S)-1-[(2-amino-4-chloro-5-methylphenyl)sulfonyl]-4-hydroxy-D-proline] — 64-fold higher, 5.1 µM
- Cc1cc(N)c(S(=O)(=O)N2C[C@H](O)C[C@H]2C(=O)O)cc1Cl [Example 25, (4R)1-[(2-amino-5-chloro-4-methylphenyl)sulfonyl]-4-hydroxy-L-proline] — 96-fold higher, 7.65 µM
- Cc1cc(NC(=O)c2cccs2)c(S(=O)(=O)N2CCC[C@H]2C(=O)O)cc1Cl [Example 26, 1-({5-chloro-4-methyl-2-[(2-thienylcarbonyl)amino]phenyl}sulfonyl)-L-proline] — 86-fold higher, 6.87 µM
- O=C(O)[C@H]1CCCN1S(=O)(=O)c1cc(Br)cc(Br)c1O [Example 27, 1-[(3,5-dibromo-2-hydroxyphenyl)sulfonyl]-D-proline] — 88-fold higher, 7 µM
- Cc1cc(S(=O)(=O)N2C[C@H](O)C[C@H]2C(=O)O)c(N)cc1Cl [Example 28, (4R)-1-[(2-amino-4-chloro-5-methylphenyl)sulfonyl]-4-hydroxy-L-proline] — 120-fold higher, 10 µM
- CCC(=O)[C@@H]1CCCN1S(=O)(=O)c1cc(Cl)cc(Cl)c1O [Example 29, 1-{(2S)-1-[(3,5-dichloro-2-hydroxyphenyl)sulfonyl]pyrrolidin-2-yl}propan-1-one] — 91-fold higher, 7.29 µM
- O=C(c1ccccc1)[C@@H]1CCCN1S(=O)(=O)c1cc(Cl)cc(Cl)c1O [Example 30, {(2S)-1-[(3,5-dichloro-2-hydroxyphenyl)sulfonyl]pyrrolidin-2-yl}(phenyl)methanone] — 94-fold higher, 7.52 µM
- O=C(O)[C@H]1CCCN1S(=O)(=O)c1cc(Cl)cc(Cl)c1O [Example 31, 1-[(3,5-dichloro-2-hydroxyphenyl)sulfonyl]-D-proline] — 81-fold higher, 6.45 µM
- O=C(O)[C@@H]1CCCN1S(=O)(=O)c1c(Cl)cc(Cl)cc1Cl [Example 32, 1-[(2,4,6-trichlorophenyl)sulfonyl]-L-proline] — 120-fold higher, 9.6 µM
- Cc1cc(NC(=O)C2CC2)c(S(=O)(=O)N2CCC[C@H]2C(=O)O)cc1Cl [Example 33, 1-({5-chloro-2-[(cyclopropylcarbonyl)amino]-4-methylphenyl}sulfonyl)-L-proline] — 110-fold higher, 8.68 µM
- Cc1cc(NC(=O)c2ccccc2)c(S(=O)(=O)N2CCC[C@H]2C(=O)O)cc1Cl [Example 34, 1-{[2-(benzoylamino)-5-chloro-4-methylphenyl]sulfonyl}-L-proline] — 130-fold higher, 10.1 µM
- Cc1ccc(S(=O)(=O)N2CCC[C@H]2C(=O)O)cc1Cl [Example 35, 1-[(3-chloro-4-methylphenyl)sulfonyl]-L-proline] — 130-fold higher, 10.2 µM
- O=C(O)[C@@H]1CCCN1S(=O)(=O)c1cc(Cl)c(Cl)cc1Cl [Example 36, 1-[(2,4,5-trichlorophenyl)sulfonyl]-L-proline] — 270-fold higher, 21.9 µM
- O=C(O)[C@@H]1CCCCN1S(=O)(=O)c1cc(Cl)c(Cl)c(Cl)c1O [Example 37, (2S)-1-[(3,4,5-trichloro-2-hydroxyphenyl)sulfonyl]piperidine-2-carboxylic acid] — the same, 0.08 µM
- O=C(O)[C@H]1CCCCN1S(=O)(=O)c1cc(Cl)c(Cl)c(Cl)c1O [Example 38, (2R)-1-[(3,4,5-trichloro-2-hydroxyphenyl)sulfonyl]piperidine-2-carboxylic acid] — 4.8-fold higher, 0.38 µM
